The supplement of paper PMC10307832

Experiments:
Assay in all cases: relative viability (nuclei count vs DMSO), 5 days (fraction); higher = more cells survive
[1] = compound: C[As](C)SC[C@H](NC(=O)CC[C@H](N)C(=O)O)C(=O)NCC(=O)O [Darinaparsin] + CC(=O)Nc1cccc(-n2c(=O)n(C3CC3)c(=O)c3c(Nc4ccc(I)cc4F)n(C)c(=O)c(C)c32)c1 [Trametinib] (partner 0.02 µM)
Procedure, shortened: (§1)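 One day after seeding in 1536-well plates, lung cancer cell lines were dosed by pin tool. Dosing was either single-drug or a fixed anchor-drug dose plus five library-drug doses (not always all listed) in √10 steps. After 5 days, nuclei were stained in one fix-and-stain step and counted on 4× images, and relative viability is the nuclei count of treated wells over that of vehicle wells, given as the median of duplicate plates.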

Darinaparsin + Olaparib = compound: C[As](C)SC[C@H](NC(=O)CC[C@H](N)C(=O)O)C(=O)NCC(=O)O [Darinaparsin] + O=C(c1cc(Cc2n[nH]c(=O)c3ccccc23)ccc1F)N1CCN(C(=O)C2CC2)CC1 [Olaparib] (partner 8 µM)
Procedure, shortened: as §1

QS11 + Lapatinib = compound: C1CC2=C(C1)C=C(C=C2)OC3=NC(=C4C(=N3)N(C=N4)CC5=CC=C(C=C5)C6=CC=CC=C6)N[C@@H](CC7=CC=CC=C7)CO [QS11] + CS(=O)(=O)CCNCc1ccc(-c2ccc3ncnc(Nc4ccc(OCc5cccc(F)c5)c(Cl)c4)c3c2)o1 [Lapatinib] (partner 2 µM)
Procedure, shortened: as §1

QS11 + AZD7762 = compound: C1CC2=C(C1)C=C(C=C2)OC3=NC(=C4C(=N3)N(C=N4)CC5=CC=C(C=C5)C6=CC=CC=C6)N[C@@H](CC7=CC=CC=C7)CO [QS11] + NC(=O)Nc1cc(-c2cccc(F)c2)sc1C(=O)N[C@H]1CCCNC1 [AZD7762] (partner 0.2 µM)
Procedure, shortened: as §1

Row | Cell Line | relative viability ([1]; first compound 0.08 µM) | relative viability ([1]; first compound 0.8 µM) | relative viability ([1]; first compound 2.53 µM) | relative viability ([1]; first compound 8 µM) | relative viability (Darinaparsin + Olaparib; first compound 0.08 µM) | relative viability (Darinaparsin + Olaparib; first compound 0.8 µM) | relative viability (Darinaparsin + Olaparib; first compound 2.53 µM) | relative viability (Darinaparsin + Olaparib; first compound 8 µM) | relative viability (QS11 + Lapatinib; first compound 0.08 µM) | relative viability (QS11 + Lapatinib; first compound 0.253 µM) | relative viability (QS11 + Lapatinib; first compound 0.8 µM) | relative viability (QS11 + Lapatinib; first compound 2.53 µM) | relative viability (QS11 + Lapatinib; first compound 8 µM) | relative viability (QS11 + AZD7762; first compound 0.08 µM) | relative viability (QS11 + AZD7762; first compound 0.253 µM) | relative viability (QS11 + AZD7762; first compound 0.8 µM) | relative viability (QS11 + AZD7762; first compound 2.53 µM) | relative viability (QS11 + AZD7762; first compound 8 µM)
1 | UMC-11 | 0.781 | 0.643 | 0.729 | 0.704 | 0.494 | 0.347 | 0.536 | 0.346 | 0.873 | 0.984 | 0.874 | 1.16 | 1.33 |  |  |  |  | 
2 | NCI-H520 | 0.883 | 0.718 | 0.669 | 0.697 | 0.378 | 0.321 | 0.354 | 0.313 |  | 1.05 | 0.863 | 0.99 | 1.13 |  |  |  |  | 
3 | COR-L23 | 0.699 | 0.581 | 0.538 | 0.681 | 0.331 | 0.323 | 0.316 | 0.358 | 1.1 | 1.08 | 0.68 | 0.582 | 0.849 |  |  |  |  | 
4 | NCI-H522 | 0.704 | 0.888 | 0.682 | 0.816 | 0.621 | 0.718 | 0.703 | 0.543 |  |  |  |  |  | 0.798 | 0.871 | 0.878 | 1.11 | 0.863
5 | COR-L 105 | 0.473 | 0.456 | 0.427 | 0.45 | 0.747 | 0.695 | 0.758 | 0.69 | 0.38 | 0.363 | 0.343 | 0.412 | 0.396 |  |  |  |  | 
6 | NCI-H1648 |  | 0.445 |  | 0.408 |  | 0.765 |  | 1.05 |  |  |  |  |  | 0.727 | 0.741 | 0.747 | 0.865 | 0.544
7 | NCI-H1650 | 0.915 | 0.49 | 0.593 | 0.636 | 0.956 | 0.718 | 0.95 | 0.801 | 0.746 | 0.643 | 0.673 | 0.731 | 0.708 |  |  |  |  | 
8 | NCI-H1563 |  |  |  |  |  |  |  |  | 0.988 | 0.892 | 1.12 | 0.972 | 0.891 |  |  |  |  | 
9 | NCI-H1703 |  |  |  |  | 0.5 | 0.587 | 0.389 | 0.516 | 0.986 | 1.41 | 1.04 | 0.974 | 1.1 |  | 0.12 | 0.121 | 0.121 | 0.168
10 | ABC-1 |  |  |  |  | 1.14 | 0.99 | 1.02 | 1.08 | 1.18 | 1.44 | 1.16 | 1.16 | 1.47 | 0.74 | 0.776 | 0.732 | 0.774 | 0.843
11 | NCI-H441 | 0.507 | 0.471 | 0.429 | 0.295 | 0.647 | 0.538 | 0.734 | 0.502 |  |  |  |  |  | 1.02 | 1.39 | 0.963 | 0.964 | 0.942
12 | Calu-6 |  |  |  |  | 0.592 | 0.59 | 0.594 | 0.556 | 1.11 | 1.07 | 0.969 | 1.31 | 1.12 |  |  |  |  | 
13 | LCLC-103H | 0.69 | 0.659 | 0.675 | 0.765 | 0.882 | 0.698 | 0.742 | 0.861 |  |  |  |  |  | 0.861 | 0.775 |  | 0.772 | 0.881
14 | A549 |  |  |  |  | 0.416 | 0.337 | 0.31 | 0.471 | 1.04 | 1.14 | 0.621 | 0.886 | 0.764 |  |  |  |  | 
